Data taken from the CheMixHub viscosity set.

Test: xn = mol fraction of the nth substance listed

CCCC(C)O (stereo not given) + CCCCCC
viscosity [mPa·s], 101.33 kPa
Conditions | x1 = 0.1 | x1 = 0.2 | x1 = 0.3 | x1 = 0.4 | x1 = 0.5 | x1 = 0.6 | x1 = 0.7 | x1 = 0.8 | x1 = 0.9
303 K | 0.28 | 0.31 | 0.382 | 0.537 | 0.682 | 0.878 | 1.228 | 1.588 | 1.965
313 K | 0.249 | 0.277 | 0.36 | 0.44 | 0.544 | 0.802 | 0.967 | 1.21 | 1.484
323 K | 0.228 | 0.254 | 0.31 | 0.385 | 0.472 | 0.634 | 0.805 | 0.981 | 1.138

CCCC(C)O (stereo not given) + CCCCCCC
101 kPa
Conditions | viscosity [mPa·s]
293.8 K, x1 = 0.5 | 0.771
295.1 K, x1 = 0.051 | 0.477

CC(CC(C)(C)C)CC(C)(C)CC(C)(C)C (stereo not given) + CCCCCCCCCCCC
Conditions | viscosity [mPa·s]
323.15 K, 100 kPa, x1 = 0.279 | 1.09

CC(CC(C)(C)C)CC(C)(C)CC(C)(C)C (stereo not given) + CCCCCCCCCCCCC
viscosity [mPa·s], 100 kPa
Conditions | x2 = 0.125 | x2 = 0.25 | x2 = 0.375 | x2 = 0.5 | x2 = 0.625 | x2 = 0.75 | x2 = 0.875
293.15 K | 3.28 | 2.98 | 2.69 | 2.49 | 2.29 | 2.14 | 1.98
303.15 K | 2.65 | 2.39 | 2.18 | 2.07 | 1.89 | 1.76 | 1.64
313.15 K | 2.15 | 1.96 | 1.79 | 1.71 | 1.57 | 1.47 | 1.39
323.15 K | 1.79 | 1.63 | 1.51 | 1.43 | 1.33 | 1.25 | 1.18

CC(CC(C)(C)C)CC(C)(C)CC(C)(C)C (stereo not given) + CCCCCCCCCCCCCCCC
298.15 K, 101.33 kPa
Conditions | viscosity [mPa·s]
x2 = 0.0974 | 3.252
x2 = 0.2011 | 3.181
x2 = 0.3015 | 3.128
x2 = 0.3995 | 3.09
x2 = 0.4995 | 3.064
x2 = 0.6002 | 3.05
x2 = 0.7004 | 3.045
x2 = 0.8 | 3.049

CCCCNCCCC + CCCCCCCCCCO
viscosity [mPa·s], 101.33 kPa
Conditions | x1 = 0.0981 | x1 = 0.1964 | x1 = 0.286 | x1 = 0.3857 | x1 = 0.4851 | x1 = 0.5846 | x1 = 0.6877 | x1 = 0.7856 | x1 = 0.8866
303.15 K | 7.771 | 6.615 | 5.545 | 4.423 | 3.439 | 2.607 | 1.944 | 1.445 | 1.073
313.15 K | 5.959 | 4.985 | 4.15 | 3.305 | 2.611 | 2.021 | 1.545 | 1.199 | 0.9135

CCOC(=O)C(=O)OCC + CCCCCCCCCCO
303.15 K, 101.33 kPa
Conditions | viscosity [mPa·s]
x1 = 0.1042 | 6.782
x1 = 0.1986 | 5.372
x1 = 0.2934 | 4.324
x1 = 0.401 | 3.516
x1 = 0.5111 | 2.851
x1 = 0.5985 | 2.488
x1 = 0.7108 | 2.078
x1 = 0.8081 | 1.837
x1 = 0.8863 | 1.691

CCCCNCCCC + CCCCCCCCO
viscosity [mPa·s], 101.33 kPa
Conditions | x1 = 0.0912 | x1 = 0.1863 | x1 = 0.2846 | x1 = 0.3857 | x1 = 0.4878 | x1 = 0.5882 | x1 = 0.6862 | x1 = 0.7892 | x1 = 0.8929
303.15 K | 5.37 | 4.588 | 3.829 | 3.105 | 2.481 | 1.979 | 1.581 | 1.251 | 0.9852
313.15 K | 3.865 | 3.336 | 2.812 | 2.336 | 1.921 | 1.569 | 1.277 | 1.026 | 0.827

CCOC(=O)C(=O)OCC + CCCCCCCCO
303.15 K, 101.33 kPa
Conditions | viscosity [mPa·s]
x1 = 0.0949 | 4.702
x1 = 0.2003 | 3.667
x1 = 0.2883 | 3.152
x1 = 0.4 | 2.636
x1 = 0.5026 | 2.296
x1 = 0.6064 | 2.027
x1 = 0.6984 | 1.86
x1 = 0.7809 | 1.74
x1 = 0.8763 | 1.638
